As usually defined, the MIC is the lowest concentration that inhibits growth of the organism.

Structures are written as SMILES. In brackets after ≈: the same amount, converted by molar mass. Activity calls are given as the source filed them. The rule behind the calls is not given here.

Data set [1] is described as follows: Cytotoxicity against mouse J774 macrophage assessed as cell viability at 100 ug/mL after 48 hrs by MTT assay. To be noted: J774 macrophage cells, read-out: Activity. It is filed as cell-based.
The nature of data set [2]: Cytotoxicity against mouse J774 macrophage assessed as cell viability at 1 ug/mL after 48 hrs by MTT assay. The class given is cell-based. To be noted: J774 macrophage cells, read-out: Activity. On the technique in general: Tetrazolium dyes change colour on reduction, which living cells bring about.
For data set [3], the system named is Mycobacterium tuberculosis. The experiment in a line: Antimicrobial activity against Mycobacterium tuberculosis H37Rv ATCC 27294 assessed as minimum inhibitory concentration […] by micro plate Alamar blue assay. The class given is functional.
Data set [4] is described as follows: Cytotoxicity against Mycobacterium bovis Bacillus Calmette-Guerin infected mouse J774 macrophage assessed as cell viability at 10 ug/mL after 48 hrs by MTT assay. Conditions: J774 macrophage cells infected with Mycobacterium bovis BCG, read-out: Activity. The class given is cell-based.
The nature of data set [5]: Cytotoxicity against Mycobacterium bovis Bacillus Calmette-Guerin infected mouse J774 macrophage assessed as cell viability at 1 ug/mL after 48 hrs by MTT assay. The class given is cell-based. Conditions: J774 macrophage cells infected with Mycobacterium bovis BCG, read-out: Activity.
A short description of data set [6]: Cytotoxicity against mouse J774 macrophage assessed as cell viability at 10 ug/mL after 48 hrs by MTT assay. To be noted: J774 macrophage cells, read-out: Activity. It is filed as cell-based.
A short description of data set [7]: Cytotoxicity against Mycobacterium bovis Bacillus Calmette-Guerin infected mouse J774 macrophage assessed as cell viability at 100 ug/mL after 48 hrs by MTT assay. The class given is cell-based. To be noted: J774 macrophage cells infected with Mycobacterium bovis BCG, read-out: Activity.

Turning to `NCCCCN` [PUTRESCINE], the viability at 48 h, 100 ug/mL was found to be 100% in data set [1] and 82% in data set [7]. For the same molecule, the viability at 48 h, 1 ug/mL in data set [2] and in data set [5] was 100% each time. Further, in data set [3], the MIC result was “inactive”. The viability at 48 h, 10 ug/mL was 90% in data set [4] and 100% in data set [6].

Take `CC[C@@H](CO)NCCN[C@@H](CC)CO` [ETHAMBUTOL]: the viability at 48 h, 100 ug/mL was 82% in data set [1] and 85% in data set [7]. For the same molecule, the viability at 48 h, 1 ug/mL in data set [2] is 100%; in data set [5], 92%. Besides, the viability at 48 h, 10 ug/mL in data set [4] was found to be 88%; in data set [6] it was 93%.

`NCCCCCCCCCCCN`: the results for the viability at 48 h, 100 ug/mL in data set [1] and in data set [7] were 100% and 40%, respectively. The viability at 48 h, 1 ug/mL in data set [2] came to 100%; in data set [5] it was 58%. For the same molecule, the MIC in data set [3] was 3.12 µg/mL (≈ 16.7 µM). The viability at 48 h, 10 ug/mL in data set [4] is 53%; in data set [6], 100%.

Take `NCCCCCCCCN` [DIAMINOOCTANE]: the viability at 48 h, 100 ug/mL in data set [1] stood at 95%; in data set [7], 64%. Besides, the viability at 48 h, 1 ug/mL in data set [2] is 100%; in data set [5] it was 68%. Moreover, the MIC entry in data set [3] was “inactive”. The values for the viability at 48 h, 10 ug/mL in data set [4] and in data set [6] were 64% and 100%, respectively.

In the case of `NCCCCCCCN`, the viability at 48 h, 100 ug/mL is 100% in data set [1] and 70% in data set [7]. For the same molecule, the viability at 48 h, 1 ug/mL in data set [2] was found to be 100%; in data set [5], 79%. The MIC result in data set [3] is “inactive”. Also, the viability at 48 h, 10 ug/mL in data set [4] was 78%; in data set [6], 100%.

As to `NCCCCCCCCCN`, the viability at 48 h, 100 ug/mL in data set [1] came out at 100%; in data set [7], 71%. Further, the viability at 48 h, 1 ug/mL in data set [2] and in data set [5] was 100% throughout. Besides, the MIC in data set [3] turned out to be 3.12 µg/mL (≈ 19.7 µM). The viability at 48 h, 10 ug/mL in data set [4] and in data set [6] was 100% each time.

On to `NCCN` [ETHYLENEDIAMINE], for which the figures for the viability at 48 h, 100 ug/mL in data set [1] and in data set [7] were 100% and 29%, respectively. Further, the figures for the viability at 48 h, 1 ug/mL in data set [2] and in data set [5] were 100% and 35%, respectively. Also, the MIC result in data set [3] is “inactive”. In addition, the viability at 48 h, 10 ug/mL stood at 23% in data set [4] and 100% in data set [6].

As for `NCCCN`, the figures for the viability at 48 h, 100 ug/mL in data set [1] and in data set [7] were 100% and 89%, respectively. The viability at 48 h, 1 ug/mL in data set [2] and in data set [5] was 100% each time. The MIC result in data set [3] is “inactive”. Also, the viability at 48 h, 10 ug/mL came to 94% in data set [4] and 100% in data set [6].

As for `NCCCCCN`, the viability at 48 h, 100 ug/mL in data set [1] came out at 100%; in data set [7] it was 98%. In addition, the viability at 48 h, 1 ug/mL in data set [2] and in data set [5] was 100% throughout. Also, in data set [3], the MIC entry was “inactive”. In addition, the viability at 48 h, 10 ug/mL in data set [4] and in data set [6] was 100% throughout.

In the case of `NCCCCCCN`, the viability at 48 h, 100 ug/mL in data set [1] turned out to be 100%; in data set [7], 76%. Moreover, the viability at 48 h, 1 ug/mL in data set [2] came out at 100%; in data set [5], 98%. In data set [3], the MIC entry is “inactive”. In addition, the figures for the viability at 48 h, 10 ug/mL in data set [4] and in data set [6] were 92% and 100%, respectively.

Consider `NCCCCCCCCCCN`, for which the figures for the viability at 48 h, 100 ug/mL in data set [1] and in data set [7] were 94% and 42%, respectively. Also, the viability at 48 h, 1 ug/mL in data set [2] came out at 100%; in data set [5], 56%. Also, in data set [3], the MIC is 3.12 µg/mL (≈ 18.1 µM). For the same molecule, the viability at 48 h, 10 ug/mL in data set [4] came to 34%; in data set [6], 100%.

Take `NCCCCCCCCCCCCN`: the viability at 48 h, 100 ug/mL was 100% in data set [1] and 38% in data set [7]. The figures for the viability at 48 h, 1 ug/mL in data set [2] and in data set [5] were 100% and 56%, respectively. Also, the MIC in data set [3] was found to be 2.5 µg/mL (≈ 12.5 µM). In addition, the viability at 48 h, 10 ug/mL in data set [4] was 49%; in data set [6], 100%.

For the origin of these results see ChEMBL document CHEMBL1155350, “Antitubercular activity of alpha,omega-diaminoalkanes, H2N(CH2)nNH2” (Bioorg Med Chem Lett, 2009).
